Assay results reported in patent US4450292A, “Derivatives of phenyl aliphatic carboxylic acids, and use thereof in treating gastric and gastro-duodenal ailments” (Roussel Uclaf, priority 1981, dated 1984).
Structures can show the parent of a compound that is named as a salt.

Key:
Format in all cases: in vivo
[1] = Acute toxicity, LD50 lethal dose after oral administration to mice; conditions: mouse, in vivo, po, orally
Method: (§1) (3) Determination of the acute toxicity
(§2) The LD50 lethal dose of the derivatives of Examples 1 to 9 after administration orally to mice was evaluated.

[2] = test system: ulcers in rats at the level of the stomach; assay: Anti-ulcer activity, SHAY technique (ligating of the pylorus); conditions: by mouth, about 16 hours after treatment
Source text: (1) Determination of the anti-ulcer activity of the compounds of Examples 1 to 4
The technique used is described by SHAY et al in Gastroenterology, 5, 43, (1945).
SHAY'S technique consists in inducing ulcers in rats at the level of the stomach by ligating of the pylorus.
The animals are anesthetized with ether. A longitudinal incision is made about 1 cm below the sternum, the glandular portion of the stomach and the duodenum are exposed and a ligature is applied a few millimeters below the pylorus. The muscular layer is left as is and the skin is sutured by two clips.
The animals immediately receive the dispersant or the substance to be studied by mouth in a volume of 0.5 cc per hundred grams and are kept without food or drink until sacrificed by carotic venesection, effected about 16 hours after the treatment.
Before removing the stomach, a ligature is placed around the cardia.
The gastric fluid is collected in order to measure the pH thereof.
The stomach is then opened along the greater curvature, rinsed in physiological serum and spread out on millimeter paper in order to be examined under a binocular lens.
The seriousness of the lesions is evaluated macroscopically, being rated from 0 to 4 for each stomach.
For each lot of rats the average intensity of the ulcerations is determined and the protection calculated by referring the average index of the group to the average index of the control group.
The pH values of the gastric liquid are also determined for the treated animals and the control animals.

mice = assay: Acute toxicity, LD50 lethal dose after oral administration to mice; conditions: orally
Method: as §1, §2

gastric fluid = assay: Anti-ulcer activity, SHAY technique as modified by P. H. Guth (pylorus ligature plus aspirin), pH of the gastric fluid; conditions: rats, orally, aspirin 200 mg/kg
Method: (2) Determination of the anti-ulcer activity of the compounds of Examples 7 and 8
The technique used is described by SHAY et al in Gastroenterology, 5, 43 (1945) as modified by P. H. Guth in Gastroenterology, 76, 88 (1976).
After 48 hours fast, rats receive the dispersant or the substance to be studied orally in a volume of 1 cc/100 g.
One hour later the animals are anesthetized with ether. A longitudinal incision is made about 1 cm below the sternum, the glandular part of the stomach and the duodenum are exposed and a ligature is placed a few millimeters below the pylorus. The muscular layer is sutured and the skin is clipped.
An hour later, 200 mg/kg of aspirin dispersed in a 1% suspension of methyl cellulose in water to which 150 millimoles of hydrochloric acid have been added are administered orally in a volume of 0.5 cc/100 g.
Two hours after this last administration, the animals are sacrificed by means of carbon dioxide.
Before removing the stomach, a ligature is placed above the cardia.
The gastric fluid is collected in order to measure its pH for the treated animals and the control animals.

COc1cc(OC)c(C(=O)CC(O)C(=O)O)cc1OC (centres unmarked) [Example 1, 4-(2,4,5-trimethoxyphenyl)-4-oxo-2-hydroxy butanoic acid]
LD50 [1]: 1000 mg/kg
Ulcerization % Protection As Compared with the Controls ([2]; 100 mg/kg): 43%
pH of the Gastric Fluid, Treated Animals ([2]; 100 mg/kg): 2.5

COc1cc(OC)c(C(=O)/C=C/C(=O)O)cc1OC [Example 2, (E) 4-(2,4,5-trimethoxyphenyl)-4-oxo-2-butenoic acid]
LD50 [1]: 600 mg/kg
Ulcerization % Protection As Compared with the Controls ([2]; 4 mg/kg): 72%
pH of the Gastric Fluid, Treated Animals ([2]; 4 mg/kg): 3.6
Ulcerization % Protection As Compared with the Controls ([2]; 20 mg/kg): 100%
pH of the Gastric Fluid, Treated Animals ([2]; 20 mg/kg): 4.6

COc1cc(C(=O)CC(O)C(=O)O)cc(OC)c1OC (centres unmarked) [Example 3, 4-(3,4,5-trimethoxyphenyl)-4-oxo-2-hydroxy butanoic acid]
LD50 [1]: 1000 mg/kg
Ulcerization % Protection As Compared with the Controls ([2]; 100 mg/kg): 45%
pH of the Gastric Fluid, Treated Animals ([2]; 100 mg/kg): 3.7

COc1cc(C(=O)/C=C/C(=O)O)cc(OC)c1OC [Example 4, (E)-4-(3,4,5-trimethoxyphenyl)-4-oxo-2-butenoic acid]
LD50 [1]: 600 mg/kg
Ulcerization % Protection As Compared with the Controls ([2]; 0.8 mg/kg): 38%
pH of the Gastric Fluid, Treated Animals ([2]; 0.8 mg/kg): 1.8
Ulcerization % Protection As Compared with the Controls ([2]; 4 mg/kg): 65%
pH of the Gastric Fluid, Treated Animals ([2]; 4 mg/kg): 3.0
Ulcerization % Protection As Compared with the Controls ([2]; 20 mg/kg): 98%
pH of the Gastric Fluid, Treated Animals ([2]; 20 mg/kg): 2.4

COc1cc(OC)c(C(=O)/C=C/C(=O)O)c(OC)c1 [Example 5, (E)-4-(2,4,6-trimethoxyphenyl)-4-oxo-2-butenoic acid]
LD50 [1]: 200 mg/kg

COc1cc(C(=O)/C=C/C(=O)O)cc(OC)c1OC [Example 7, Morpholine salt of (E) 4-(3,4,5-trimethoxyphenyl)-4-oxo-2-butenoic acid]
LD50 (mice): > 400 mg/kg
pH of the Gastric Fluid, Treated Animals (gastric fluid; 4 mg/kg): 2
pH of the Gastric Fluid, Treated Animals (gastric fluid; 20 mg/kg): 2.4
pH of the Gastric Fluid, Treated Animals (gastric fluid; 100 mg/kg): 4.1

COc1cc(C(=O)/C=C/C(=O)O)cc(OC)c1OC [Example 8, Sodium salt of (E)-4-(3,4,5-trimethoxyphenyl)-4-oxo-2-butenoic acid]
LD50 (mice): > 400 mg/kg
pH of the Gastric Fluid, Treated Animals (gastric fluid; 0.8 mg/kg): 2.3
pH of the Gastric Fluid, Treated Animals (gastric fluid; 4 mg/kg): 2.2
pH of the Gastric Fluid, Treated Animals (gastric fluid; 20 mg/kg): 3
pH of the Gastric Fluid, Treated Animals (gastric fluid; 100 mg/kg): 4.6

COc1cc(C(=O)/C=C/C(=O)O)cc(OC)c1OC [Example 9, Piperidine salt of (E)-4-(3,4,5-trimethoxyphenyl)-4-oxo-2-butenoic acid]
LD50 (mice): > 400 mg/kg
